{
  "source": "patent US20020137929A1",
  "about": "“1 - (3-heterocyclylphenyl) isothiourea, -isourea, -guanidine and -amidine herbicidal agents” (Intellectual Property Department, BASF Aktiengesellschaft, priority 1998, published 2002)",
  "key": {"ABUTH (Velvetleaf) [1]": {"tested_on": "ABUTH (Velvetleaf)", "test": "Postemergence herbicidal evaluation", "type": "in vivo, Abutilon theophrasti", "details": "postemergence", "method_in_brief": "(§1)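 First, seedlings were raised for around two weeks. Next, test material in 50/50 acetone/water containing 0.5% TWEEN 20 was sprayed through a nozzle at 40 psi, equivalent to about 0.0156–0.500 kg/ha. Finally, after 4–5 weeks in the greenhouse, plants were rated 0–9.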"}, "ABUTH (Velvetleaf) [2]": {"tested_on": "ABUTH (Velvetleaf)", "test": "Preemergence herbicidal evaluation", "type": "in vivo, Abutilon theophrasti", "details": "rated 4-5 weeks after treatment, rating scale 0-9", "method_in_brief": "(§2)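 Each species is sown separately in potting soil over roughly an inch of soil before any emergence. The soil surface then receives an aqueous acetone spray delivering about 0.0156 to 0.500 kg/ha of compound. After four to five weeks, injury is scored from 0 to 9 relative to a control.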"}, "CASOB (Sicklepod)": {"tested_on": "CASOB (Sicklepod)", "test": "Preemergence herbicidal evaluation", "type": "in vivo, Cassia obtusifolia", "details": "rated 4-5 weeks after treatment, rating scale 0-9", "method_in_brief": "as §2"}, "[3]": {"tested_on": "TRZAWR (Wheat, Winter, cv Riband)", "test": "Preemergence herbicidal evaluation", "type": "in vivo, Triticum aestivum", "details": "rated 4-5 weeks after treatment, rating scale 0-9", "method_in_brief": "as §2"}, "[4]": {"tested_on": "CHEAL (Lambsquarters, Common)", "test": "Preemergence herbicidal evaluation", "type": "in vivo, Chenopodium album", "details": "rated 4-5 weeks after treatment, rating scale 0-9", "method_in_brief": "as §2"}, "[5]": {"tested_on": "IPOHE (Morningglory, Ivyleaf)", "test": "Preemergence herbicidal evaluation", "type": "in vivo, Ipomoea hederacea", "details": "rated 4-5 weeks after treatment, rating scale 0-9", "method_in_brief": "as §2"}, "ECHCG (Barnyardgrass) [6]": {"tested_on": "ECHCG (Barnyardgrass)", "test": "Preemergence herbicidal evaluation", "type": "in vivo, Echinochloa crus-galli", "details": "rated 4-5 weeks after treatment, rating scale 0-9", "method_in_brief": "as §2"}, "SETVI (Foxtail, Green)": {"tested_on": "SETVI (Foxtail, Green)", "test": "Postemergence herbicidal evaluation", "type": "in vivo, Setaria viridis", "details": "postemergence", "method_in_brief": "as §1"}, "ECHCG (Barnyardgrass) [7]": {"tested_on": "ECHCG (Barnyardgrass)", "test": "Postemergence herbicidal evaluation", "type": "in vivo, Echinochloa crus-galli", "details": "postemergence", "method_in_brief": "as §1"}, "ORYSAT (Rice, Tebonnet)": {"tested_on": "ORYSAT (Rice, Tebonnet)", "test": "Postemergence herbicidal evaluation", "type": "in vivo, Oryza sativa, (L.) Tebonnet", "details": "postemergence", "method_in_brief": "as §1"}, "[8]": {"tested_on": "CHEAL (Lambsquarters, Common)", "test": "Postemergence herbicidal evaluation", "type": "in vivo, Chenopodium album", "details": "postemergence", "method_in_brief": "as §1"}, "ZEAMX (Corn, Field) [9]": {"tested_on": "ZEAMX (Corn, Field)", "test": "Postemergence herbicidal evaluation", "type": "in vivo, Zea mays", "details": "postemergence", "method_in_brief": "as §1"}, "[10]": {"tested_on": "GLXMAW (Soybean, Williams)", "test": "Preemergence herbicidal evaluation", "type": "in vivo, Glycine max, (L.) Merr. cv Williams", "details": "rated 4-5 weeks after treatment, rating scale 0-9", "method_in_brief": "as §2"}, "ZEAMX (Corn, Field) [11]": {"tested_on": "ZEAMX (Corn, Field)", "test": "Preemergence herbicidal evaluation", "type": "in vivo, Zea mays", "details": "rated 4-5 weeks after treatment, rating scale 0-9", "method_in_brief": "as §2"}, "[12]": {"tested_on": "IPOHE (Morningglory, Ivyleaf)", "test": "Postemergence herbicidal evaluation", "type": "in vivo, Ipomoea hederacea", "details": "postemergence", "method_in_brief": "as §1"}},
  "data": [
    {"smiles": "Cn1c(C(F)(F)F)cc(=O)n(-c2cc(N=C3SCC(=O)N3Cc3cccc(C(F)(F)F)c3)c(Cl)cc2F)c1=O", "note": "[Compound 142, 3-{4-Chloro-2-fluoro-5-{{3-[m-(trifluoromethyl)benzyl]-4-oxo-2-thiazolidinylidene}-amino}phenyl}-1-methyl-6-(trifluoromethyl)-2,4(1H,3H)-pyrimidinedione]", "values": [
      {"measurement": "herbicidal rating ABUTH", "setting": "ABUTH (Velvetleaf) [1]; rate 0.0156 kg/ha", "result": 3.0},
      {"measurement": "herbicidal rating ABUTH", "setting": "ABUTH (Velvetleaf) [1]; rate 0.0313 kg/ha", "result": 9.0},
      {"measurement": "herbicidal rating ABUTH", "setting": "ABUTH (Velvetleaf) [1]; rate 0.0625 kg/ha", "result": 9.0},
      {"measurement": "Preemergence herbicidal rating ABUTH", "setting": "ABUTH (Velvetleaf) [2]; rate 0.0156 kg/ha", "result": 0.0},
      {"measurement": "Preemergence herbicidal rating ABUTH", "setting": "ABUTH (Velvetleaf) [2]; rate 0.0313 kg/ha", "result": 1.0},
      {"measurement": "Preemergence herbicidal rating ABUTH", "setting": "ABUTH (Velvetleaf) [2]; rate 0.0625 kg/ha", "result": 1.0},
      {"measurement": "Preemergence herbicidal rating ABUTH", "setting": "ABUTH (Velvetleaf) [2]; rate 0.1250 kg/ha", "result": 4.0},
      {"measurement": "Preemergence herbicidal rating ABUTH", "setting": "ABUTH (Velvetleaf) [2]; rate 0.2500 kg/ha", "result": 9.0},
      {"measurement": "Preemergence herbicidal rating CASOB", "setting": "CASOB (Sicklepod); rate 0.0156 kg/ha", "result": 1.0},
      {"measurement": "Preemergence herbicidal rating CASOB", "setting": "CASOB (Sicklepod); rate 0.0313 kg/ha", "result": 0.0},
      {"measurement": "Preemergence herbicidal rating CASOB", "setting": "CASOB (Sicklepod); rate 0.0625 kg/ha", "result": 2.0},
      {"measurement": "Preemergence herbicidal rating CASOB", "setting": "CASOB (Sicklepod); rate 0.1250 kg/ha", "result": 1.0},
      {"measurement": "Preemergence herbicidal rating CASOB", "setting": "CASOB (Sicklepod); rate 0.2500 kg/ha", "result": 0.0},
      {"measurement": "Preemergence herbicidal rating TRZAWR", "setting": "[3]; rate 0.0156 kg/ha", "result": 0.0},
      {"measurement": "Preemergence herbicidal rating TRZAWR", "setting": "[3]; rate 0.0313 kg/ha", "result": 0.0},
      {"measurement": "Preemergence herbicidal rating TRZAWR", "setting": "[3]; rate 0.0625 kg/ha", "result": 0.0},
      {"measurement": "Preemergence herbicidal rating TRZAWR", "setting": "[3]; rate 0.1250 kg/ha", "result": 0.0},
      {"measurement": "Preemergence herbicidal rating TRZAWR", "setting": "[3]; rate 0.2500 kg/ha", "result": 0.0},
      {"measurement": "Preemergence herbicidal rating CHEAL", "setting": "[4]; rate 0.0156 kg/ha", "result": 4.0},
      {"measurement": "Preemergence herbicidal rating CHEAL", "setting": "[4]; rate 0.0313 kg/ha", "result": 3.0},
      {"measurement": "Preemergence herbicidal rating CHEAL", "setting": "[4]; rate 0.0625 kg/ha", "result": 9.0},
      {"measurement": "Preemergence herbicidal rating CHEAL", "setting": "[4]; rate 0.1250 kg/ha", "result": 9.0},
      {"measurement": "Preemergence herbicidal rating CHEAL", "setting": "[4]; rate 0.2500 kg/ha", "result": 9.0},
      {"measurement": "Preemergence herbicidal rating IPOHE", "setting": "[5]; rate 0.0156 kg/ha", "result": 0.0},
      {"measurement": "Preemergence herbicidal rating IPOHE", "setting": "[5]; rate 0.0313 kg/ha", "result": 0.0},
      {"measurement": "Preemergence herbicidal rating IPOHE", "setting": "[5]; rate 0.0625 kg/ha", "result": 0.0},
      {"measurement": "Preemergence herbicidal rating IPOHE", "setting": "[5]; rate 0.1250 kg/ha", "result": 1.0},
      {"measurement": "Preemergence herbicidal rating IPOHE", "setting": "[5]; rate 0.2500 kg/ha", "result": 2.0},
      {"measurement": "Preemergence herbicidal rating ECHCG", "setting": "ECHCG (Barnyardgrass) [6]; rate 0.0156 kg/ha", "result": 0.0},
      {"measurement": "Preemergence herbicidal rating ECHCG", "setting": "ECHCG (Barnyardgrass) [6]; rate 0.0313 kg/ha", "result": 0.0},
      {"measurement": "Preemergence herbicidal rating ECHCG", "setting": "ECHCG (Barnyardgrass) [6]; rate 0.0625 kg/ha", "result": 0.0},
      {"measurement": "Preemergence herbicidal rating ECHCG", "setting": "ECHCG (Barnyardgrass) [6]; rate 0.1250 kg/ha", "result": 0.0},
      {"measurement": "Preemergence herbicidal rating ECHCG", "setting": "ECHCG (Barnyardgrass) [6]; rate 0.2500 kg/ha", "result": 0.0},
      {"measurement": "herbicidal rating SETVI", "setting": "SETVI (Foxtail, Green); rate 0.0156 kg/ha", "result": 2.0},
      {"measurement": "herbicidal rating SETVI", "setting": "SETVI (Foxtail, Green); rate 0.0313 kg/ha", "result": 1.0},
      {"measurement": "herbicidal rating SETVI", "setting": "SETVI (Foxtail, Green); rate 0.0625 kg/ha", "result": 3.0},
      {"measurement": "herbicidal rating ECHCG", "setting": "ECHCG (Barnyardgrass) [7]; rate 0.0156 kg/ha", "result": 1.0},
      {"measurement": "herbicidal rating ECHCG", "setting": "ECHCG (Barnyardgrass) [7]; rate 0.0313 kg/ha", "result": 1.0},
      {"measurement": "herbicidal rating ECHCG", "setting": "ECHCG (Barnyardgrass) [7]; rate 0.0625 kg/ha", "result": 2.0},
      {"measurement": "herbicidal rating ORYSAT", "setting": "ORYSAT (Rice, Tebonnet); rate 0.0156 kg/ha", "result": 2.0},
      {"measurement": "herbicidal rating ORYSAT", "setting": "ORYSAT (Rice, Tebonnet); rate 0.0313 kg/ha", "result": 1.5},
      {"measurement": "herbicidal rating ORYSAT", "setting": "ORYSAT (Rice, Tebonnet); rate 0.0625 kg/ha", "result": 2.0},
      {"measurement": "herbicidal rating CHEAL", "setting": "[8]; rate 0.0156 kg/ha", "result": 4.0},
      {"measurement": "herbicidal rating CHEAL", "setting": "[8]; rate 0.0313 kg/ha", "result": 9.0},
      {"measurement": "herbicidal rating CHEAL", "setting": "[8]; rate 0.0625 kg/ha", "result": 9.0},
      {"measurement": "herbicidal rating ZEAMX", "setting": "ZEAMX (Corn, Field) [9]; rate 0.0156 kg/ha", "result": 4.0},
      {"measurement": "herbicidal rating ZEAMX", "setting": "ZEAMX (Corn, Field) [9]; rate 0.0313 kg/ha", "result": 4.0},
      {"measurement": "herbicidal rating ZEAMX", "setting": "ZEAMX (Corn, Field) [9]; rate 0.0625 kg/ha", "result": 4.5},
      {"measurement": "Preemergence herbicidal rating GLXMAW", "setting": "[10]; rate 0.0156 kg/ha", "result": 1.0},
      {"measurement": "Preemergence herbicidal rating GLXMAW", "setting": "[10]; rate 0.0313 kg/ha", "result": 0.0},
      {"measurement": "Preemergence herbicidal rating GLXMAW", "setting": "[10]; rate 0.0625 kg/ha", "result": 0.0},
      {"measurement": "Preemergence herbicidal rating GLXMAW", "setting": "[10]; rate 0.1250 kg/ha", "result": 0.0},
      {"measurement": "Preemergence herbicidal rating GLXMAW", "setting": "[10]; rate 0.2500 kg/ha", "result": 1.0},
      {"measurement": "Preemergence herbicidal rating ZEAMX", "setting": "ZEAMX (Corn, Field) [11]; rate 0.0156 kg/ha", "result": 0.0},
      {"measurement": "Preemergence herbicidal rating ZEAMX", "setting": "ZEAMX (Corn, Field) [11]; rate 0.0313 kg/ha", "result": 0.0},
      {"measurement": "Preemergence herbicidal rating ZEAMX", "setting": "ZEAMX (Corn, Field) [11]; rate 0.0625 kg/ha", "result": 0.0},
      {"measurement": "Preemergence herbicidal rating ZEAMX", "setting": "ZEAMX (Corn, Field) [11]; rate 0.1250 kg/ha", "result": 2.0},
      {"measurement": "Preemergence herbicidal rating ZEAMX", "setting": "ZEAMX (Corn, Field) [11]; rate 0.2500 kg/ha", "result": 2.0},
      {"measurement": "herbicidal rating IPOHE", "setting": "[12]; rate 0.0156 kg/ha", "result": 7.0},
      {"measurement": "herbicidal rating IPOHE", "setting": "[12]; rate 0.0313 kg/ha", "result": 7.0},
      {"measurement": "herbicidal rating IPOHE", "setting": "[12]; rate 0.0625 kg/ha", "result": 9.0}
    ]}
  ]
}
